Reference: US6737431B2 (Bristol-Myers Squibb Company, priority 2002, dated 2004)
pIC50: −log10 of the molar value.

How the values were obtained:
melatonin ML1a receptor = target: T1, melatonin ML1a receptor (Homo sapiens, UniProt P48039); assay: Melatonergic receptor binding, 2-[125I]-iodomelatonin, ML1a; conditions: NIH-3T3 membranes, 0.1 nM 2-[125I]-iodomelatonin, 37° C. 1 hour
T1 construct: expressed in transfected cells; membrane homogenates
Method: (§1) Melatonergic Receptor Binding Activity
(§2) (a) TME=50 mM Tris buffer containing 12.5 mM MgCl2, and 2 mM EDTA, pH 7.4 at 37° C., with concentrated HCl.
(§3) (b) Wash buffer: 20 mM Tris base containing 2 mM MgCl2, pH 7.4 at room temperature.
(§4) (c) 10^−4 M melatonin (10^−5 M final concentration).
(d) 2-[^125I]-iodomelatonin ML1a, 0.1 nM final concentration.
(§5) 2. Membrane Homogenates: The melatonin ML1a and ML1b receptors cDNA were individually subcloned into pcDNA3 and introduced into NIH-3T3 cells using Lipofectamine. Transformed NIH-3T3 cells resistant to geneticin (G-418) were isolated, and single colonies expressing high levels of 2[^125I]-iodomelatonin binding were isolated. Cells are maintained in DMEM supplemented with 10% calf serum and G-418 (0.5 g/liter). Cells are grown to confluency in T-175 flasks, scraped using Hank's balanced salt solution, and frozen at −80° C. For preparing membrane homogenates, pellets are thawed on ice, and re-suspended in TME buffer in the presence of 10 μg/ml aprotinin and leupeptin, and 100 μM phenylmethylsulfonylfluoride. The cells were then homogenized using a dounce homogenizer, and centrifuged. The resulting pellet was re-suspended with dounce homogenizer in TME (supplemented with the above protease inhibitors) and frozen. On the day of assay, a small aliquot was thawed on ice and re-suspended in the ice cold TME (1:50-1:100 v/v) and held on ice until assayed.
(§6) 3. Incubation: 37° C. for 1 hour. Reaction is terminated by filtration. Filters were washed 3 times.
(§7) 4. References: Reppert, S. M. et al., Neuron, 13, p. 1177-1185 (1994); and Reppert, S. M. et al., Proc. Natl. Acad. Sci. USA, 92, p. 8734-8738 (1995).
(§8) The compounds of the present invention have affinity for receptors of the endogenous pineal hormone, melatonin, as determined in receptor binding assays described above in Tables I to III for the ML1a and ML1b (human) receptors. Melatonin is involved in the regulation of a variety of biological rhythms and exerts its biological effects via interaction with specific receptors. There is evidence that administration of melatonin agonists are of clinical utility in the treatment of various conditions regulated by melatonin activity. Such conditions include depression, jet-lag, work-shift syndrome, sleep disorders, glaucoma, some disorders associated with reproduction, cancer benign prostatic hyperplasia, immune disorders, and neuroendocrine disorders.

melatonin ML1b receptor = target: T2, melatonin ML1b receptor (Homo sapiens, UniProt P49286); assay: Melatonergic receptor binding, 2-[125I]-iodomelatonin, ML1b; conditions: NIH-3T3 membranes, 0.2 nM 2-[125I]-iodomelatonin, 37° C. 1 hour
T2 construct: expressed in transfected cells; membrane homogenates
T2 sequence (P49286 1-362): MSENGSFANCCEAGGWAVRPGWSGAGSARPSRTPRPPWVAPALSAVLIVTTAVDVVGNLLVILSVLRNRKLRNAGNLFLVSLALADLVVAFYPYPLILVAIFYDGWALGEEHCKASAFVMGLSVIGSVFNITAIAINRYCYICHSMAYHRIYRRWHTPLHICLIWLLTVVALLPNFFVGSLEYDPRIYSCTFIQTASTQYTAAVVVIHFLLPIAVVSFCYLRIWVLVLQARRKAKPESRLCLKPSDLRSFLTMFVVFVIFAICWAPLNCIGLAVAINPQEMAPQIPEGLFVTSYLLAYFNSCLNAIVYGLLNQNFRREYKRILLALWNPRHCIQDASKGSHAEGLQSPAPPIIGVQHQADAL
Method: as §1, §2, §3, §4
(e) 2-[^125I]-iodomelatonin ML1b, 0.2 nM final concentration.
as §5, §6, §7, §8

T1 sequence (P48039 whole entry): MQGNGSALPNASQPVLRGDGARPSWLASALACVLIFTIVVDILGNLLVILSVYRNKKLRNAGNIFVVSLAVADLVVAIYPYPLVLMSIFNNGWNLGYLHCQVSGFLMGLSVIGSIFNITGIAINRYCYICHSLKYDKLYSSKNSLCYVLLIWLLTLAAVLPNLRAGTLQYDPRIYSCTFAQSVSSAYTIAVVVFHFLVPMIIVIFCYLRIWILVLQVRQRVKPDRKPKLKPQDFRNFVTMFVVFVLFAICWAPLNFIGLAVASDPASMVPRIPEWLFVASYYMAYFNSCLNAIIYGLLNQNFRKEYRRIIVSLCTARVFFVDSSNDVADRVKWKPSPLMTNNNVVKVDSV

Structure (SMILES)	pIC50 (melatonin ML1a receptor; Table II)	pIC50 (melatonin ML1b receptor; Table II)	pIC50 (melatonin ML1a receptor; Table I)	pIC50 (melatonin ML1b receptor; Table I)	also measured
CCc1nc2cc(Br)cc(CCCNC(=O)OC(C)(C)C)c2o1 [Example 40]	6.60 to 8.00	< 6.60			
CCCc1nc2cccc([C@@H]3C[C@H]3CNC(C)=O)c2o1 [Example 82, N-{[(1R,2R)-2-(2-Propylbenzoxazol-7-yl)cyclopropyl]methyl}acetamide]					pIC50 (melatonin ML1a receptor; Table III): > 8.00; pIC50 (melatonin ML1b receptor; Table III): > 8.00
CC(C)c1nc2cccc([C@@H]3C[C@H]3CNC(=O)C3CC3)c2o1 [Example 91, N-({(1R,2R)-2-[2-(Methylethyl)benzoxazol-7-yl]cyclopropyl}methyl)cyclopropylcarboxamide]					pIC50 (melatonin ML1a receptor; Table III): > 8.00; pIC50 (melatonin ML1b receptor; Table III): > 8.00
C=Cc1ccc2nc(CC)oc2c1CCCNC(=O)OC(C)(C)C [Example 41, N-t-Butoxycarbonyl 7-(3-aminopropyl)-6-vinyl-2-ethylbenzoxazole]	< 6.60	< 6.60			
CCc1nc2ccc(C)c(CCCNC(C)=O)c2o1 [Example 44, N-[3-(2-Ethyl-6-methylbenzoxazol-7-yl)propyl]acetamide]	6.60 to 8.00	6.60 to 8.00			
CC(C)C(=O)NCCCc1cccc2ncoc12 [Example 33, N-(3-Benzoxazol-7-ylpropyl)-2-methylpropanamide]			6.60 to 8.00	> 8.00	
CCc1nc2cc(Br)cc(CCCNC(C)=O)c2o1 [Example 68, N-[3-(5-Bromo-2-ethylbenzoxazol-7-yl)propyl]acetamide]	< 6.60	6.60 to 8.00			
CCC(=O)NC[C@@H]1C[C@H]1c1cccc2nc(C(C)C)oc12 [Example 85, N-({(1R,2R)-2-[2-(Methylethyl)benzoxazol-7-yl]cyclopropyl}methyl)propanamide]					pIC50 (melatonin ML1a receptor; Table III): > 8.00; pIC50 (melatonin ML1b receptor; Table III): > 8.00
CCCC(=O)NC[C@@H]1C[C@H]1c1cccc2nc(CCC)oc12 [Example 86, N-{[(1R,2R)-2-(2-Propylbenzoxazol-7-yl)cyclopropyl]methyl}butanamide]					pIC50 (melatonin ML1a receptor; Table III): > 8.00; pIC50 (melatonin ML1b receptor; Table III): > 8.00

More lines, main results first:

pIC50 (melatonin ML1a receptor; Table II)	pIC50 (melatonin ML1b receptor; Table II)	pIC50 (melatonin ML1a receptor; Table I)	pIC50 (melatonin ML1b receptor; Table I)	Structure (SMILES)	also measured
		> 8.00	6.60 to 8.00	CCCC(=O)NCCCc1cccc2nc(CCCCc3ccccc3)oc12 [Example 27, N-{3-[2-(4-Phenylbutyl)benzoxazol-7-yl]propyl}butanamide]	
		> 8.00	> 8.00	Cc1nc2cccc(CCCNC(=O)C(C)C)c2o1 [Example 5, N-[3-(2-Methyl-7-benzoxazolyl)propyl]-2-methylpropanamide]	
		> 8.00	6.60 to 8.00	CC(=O)NCCCc1cccc2nc(CCCCc3ccccc3)oc12 [Example 25, N-{3-[2-(4-Phenylbutyl)benzoxazol-7-yl]propyl}acetamide]	
6.60 to 8.00	> 8.00			CCc1nc2ccc(-c3ccccc3)c(CCCNC(=O)C3CC3)c2o1 [Example 57, Cyclopropyl-N-[3-(2-ethyl-6-phenylbenzoxazol-7-yl)propyl]carboxamide]	
		6.60 to 8.00	6.60 to 8.00	CCNC(=O)NCCCc1cccc2nc(C)oc12 [Example 6, (Ethylamino)-N-[3-(2-methylbenzoxazol-7-yl)propyl]carboxamide]	
		6.60 to 8.00	> 8.00	CCc1nc2cccc(CCCNC(C)=O)c2o1 [Example 7, N-[3-(2-Ethylbenzoxazol-7-yl)propyl]acetamide]	
< 6.60	< 6.60			CCc1nc2ccc(-c3ccc(OC)cc3)c(CCCNC(=O)c3ccccc3)c2o1 [Example 53, N-{3-[2-Ethyl-6-(4-methoxyphenyl)benzoxazol-7-yl]propyl}benzamide]	
		6.60 to 8.00	6.60 to 8.00	CCC(=O)NCCCc1cccc2nc(C(C)C)oc12 [Example 35, N-{3-[2-(Methylethyl)benzoxazol-7-yl]propyl}propanamide]	
		> 8.00	6.60 to 8.00	CC(C)C(=O)NCCCc1cccc2nc(CCCCc3ccccc3)oc12 [Example 28, 2-Methyl-N-{3-[2-(4-phenylbutyl)benzoxazol-7-yl]propyl}propanamide]	
		> 8.00	> 8.00	CCCC(=O)NCCCc1cccc2nc(C)oc12 [Example 3, N-[3-(2-Methyl-7-benzoxazolyl)propyl]butanamide]	
